Experimental data as given in patent publication US20230183243A1, “HETEROARYL DERIVATIVES AND PHARMACEUTICAL COMPOSITION COMPRISING SAME AS ACTIVE INGREDIENT” (VORONOI INC., priority 2019, published 2023).

Tests used:
TTK = target: T1, TTK (Homo sapiens, UniProt P33981); assay: TTK enzyme activity, ADP-Glo kinase assay; type: biochemical; design: purchased SignalChem T20-10G; details: purified human TTK, ATP 10 μM, 25° C., 2 hours
T1 sequence (P33981 1-857): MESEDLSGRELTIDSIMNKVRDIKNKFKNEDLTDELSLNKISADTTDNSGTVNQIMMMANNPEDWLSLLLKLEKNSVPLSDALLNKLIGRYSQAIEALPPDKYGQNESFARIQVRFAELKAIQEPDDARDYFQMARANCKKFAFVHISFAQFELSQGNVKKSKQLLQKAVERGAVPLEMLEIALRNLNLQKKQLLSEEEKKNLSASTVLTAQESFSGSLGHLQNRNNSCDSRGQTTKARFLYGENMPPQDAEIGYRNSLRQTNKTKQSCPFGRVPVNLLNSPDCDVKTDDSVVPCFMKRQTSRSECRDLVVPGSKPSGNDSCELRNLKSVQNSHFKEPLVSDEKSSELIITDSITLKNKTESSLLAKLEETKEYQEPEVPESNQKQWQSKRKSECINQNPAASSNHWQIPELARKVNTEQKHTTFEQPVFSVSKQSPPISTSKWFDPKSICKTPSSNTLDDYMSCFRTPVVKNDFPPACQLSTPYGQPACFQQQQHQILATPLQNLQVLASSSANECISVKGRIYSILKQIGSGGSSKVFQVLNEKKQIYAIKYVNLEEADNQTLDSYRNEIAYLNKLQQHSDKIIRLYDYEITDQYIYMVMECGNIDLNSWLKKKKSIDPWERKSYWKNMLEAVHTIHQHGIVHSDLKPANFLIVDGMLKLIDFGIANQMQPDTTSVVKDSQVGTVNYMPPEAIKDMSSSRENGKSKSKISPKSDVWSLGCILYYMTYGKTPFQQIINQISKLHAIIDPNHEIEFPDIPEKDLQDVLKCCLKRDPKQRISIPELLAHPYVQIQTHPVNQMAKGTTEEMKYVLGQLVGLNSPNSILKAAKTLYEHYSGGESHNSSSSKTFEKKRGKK
How it was run: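 ADP-Glo read-out; percent inhibition at each compound concentration was relative to the solvent-only control. The reactions contained 25 ng enzyme, 0.2 μg substrate and 10 μM ATP in 40 mM Tris-HCl pH 7.4 with 20 mM MgCl2, 0.5 mg/mL BSA and 50 μM DTT, and ran 2 h at 25 °C.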

SHP-77 = assay: Inhibition of proliferation of small cell lung cancer cells, CellTiter-Glo; type: cell-based; details: Homo sapiens, SHP77, 120 h; SHP-77, cultured for 5 days
How it was run: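 SHP-77 cells at 2,000–3,000 cells/well, cultured 24 h at 37° C, 5% CO2, then given 12 threefold compound dilutions, final 10 μM to 0.05 nM, for 5 days. Viability by CellTiter-Glo luminescence relative to solvent control. GI50 from concentration–response.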

MDA-MB-231 cells = assay: Inhibition of proliferation of triple-negative breast cancer cells, CellTiter-Glo; type: cell-based; details: Homo sapiens, 120 h; MDA-MB-231, cultured for 5 days
How it was run: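 MDA-MB-231 cells pre-cultured 24 h (5% CO2, 37 °C), then exposed to compound for 5 days at 12 three-fold dilutions, final 10 μM to 0.05 nM. Viability read by CellTiter-Glo luminescence after 10 min at 37 °C; growth inhibition calculated relative to untreated solvent-control cells.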

IC50 (TTK) | GI50 (SHP-77) | GI50 (MDA-MB-231 cells) | Structure (SMILES)
< 50 nM | < 100 nM | < 100 nM | COc1cc(-c2c(C)noc2C)ccc1Nc1nc(NC2C[C@H]3CC[C@@H]2C3)c2c(C#N)c[nH]c2n1 (stereo partly drawn) [Example 146, 4-(((1R,4S)-bicyclo[2.2.1]heptan-2-yl)amino)-2-((4-(3,5-dimethylisoxazol-4-yl)-2-methoxyphenyl)amino)-7H-pyrrolo[2,3-d] pyrimidine-5-carbonitrile]
50 to 200 nM | < 100 nM | < 100 nM | COc1cc(Nc2nc(NC3CCCCC3)c3c(C#N)c[nH]c3n2)ccc1-c1cnn(C)c1 [Example 137, 4-(cyclohexylamino)-2-((3-methoxy-4-(1-methyl-1H-pyrazol-4-yl)phenyl)amino)-7H-pyrrolo[2,3-d] pyrimidine-5-carbonitrile]
< 50 nM | < 100 nM | < 100 nM | COc1cc(-c2c(C)noc2C)ccc1Nc1nc(NC2CCOCC2)c2c(C#N)c[nH]c2n1 [Example 91]
50 to 200 nM | < 100 nM | < 100 nM | Cn1nccc1-c1ccc(Nc2nc(NCC3CCC3)c3c(C#N)c[nH]c3n2)c2c1OCCO2 [Example 100, 4-((cyclobutylmethyl)amino)-2-((8-(1-methyl-1H-pyrazol-5-yl)-2,3-dihydrobenzo[b][1,4]dioxin-5-yl)amino)-7H-pyrrolo[2,3-d] pyrimidine-5-carbonitrile]
50 to 200 nM | < 100 nM | < 100 nM | Cn1cc(-c2ccc(Nc3nc(NC4CCCCCC4)c4c(C#N)c[nH]c4n3)c3c2OCCO3)cn1 [Example 150, 4-(cycloheptylamino)-2-((8-(1-methyl-1H-pyrazol-4-yl)-2,3-dihydrobenzo[b][1,4]dioxin-5-yl)amino)-7H-pyrrolo[2,3-d] pyrimidine-5-carbonitrile]
50 to 200 nM | < 100 nM | < 100 nM | COc1cc(-c2c(C)noc2C)ccc1Nc1nc(NC2CCCCCC2)c2c(C#N)c[nH]c2n1 [Example 149, 4-(cycloheptylamino)-2-((4-(3,5-dimethylisoxazol-4-yl)-2-methoxyphenyl)amino)-7H-pyrrolo[2,3-d] pyrimidine-5-carbonitrile]
200 to 1000 nM | < 100 nM | < 100 nM | Cn1nccc1-c1ccc(Nc2nc(NC3CCCCCC3)c3c(C#N)c[nH]c3n2)c2c1OCCO2 [Example 59, 4-(cycloheptylamino)-2-((8-(1-methyl-1H-pyrazol-5-yl)-2,3-dihydrobenzo[b][1,4]dioxin-5-yl)amino)-7H-pyrrolo[2,3-d] pyrimidine-5-carbonitrile]
< 50 nM | < 100 nM | < 100 nM | COc1cc(N2CCCCS2(=O)=O)ccc1Nc1nc(NC2CCCC2)c2c(C#N)c[nH]c2n1 [Example 155, 4-(cyclopentylamino)-2-((4-(1,1-dioxido-1,2-thiazinan-2-yl)-2-methoxyphenyl)amino)-7H-pyrrolo[2,3-d] pyrimidine-5-carbonitrile]
200 to 1000 nM | < 100 nM | < 100 nM | COc1cc(Nc2nc(NC3CCCCC3)c3c(C#N)c[nH]c3n2)ccc1-c1c(C)noc1C [Example 140, 4-(cyclohexylamino)-2-((4-(3,5-dimethylisoxazol-4-yl)-3-methoxyphenyl)amino)-7H-pyrrolo[2,3-d] pyrimidine-5-carbonitrile]
< 50 nM | < 100 nM | < 100 nM | Cn1nccc1-c1ccc(Nc2nc(NC3CCOC(C)(C)C3)c3c(C(F)(F)F)c[nH]c3n2)c2c1OCCO2 (stereo not drawn) [Example 172, N^4-(2,2-dimethyltetrahydro-2H-pyran-4-yl)-N^2-(8-(1-methyl-1H-pyrazol-5-yl)-2,3-dihydrobenzo[b][1,4]dioxin-5-yl)-5-(trifluoromethyl)-7H-pyrrolo[2,3-d] pyrimidine-2,4-diamine]
< 50 nM | < 100 nM | < 100 nM | CC1(C)CC(Nc2nc(Nc3cccc4c3OCCO4)nc3[nH]cc(C#N)c23)CCO1 (stereo not drawn) [Example 171]
< 50 nM | < 100 nM | < 100 nM | COc1cc(N2CCCS2(=O)=O)ccc1Nc1nc(NC2CCOCC2)c2c(C(F)(F)F)c[nH]c2n1 [Example 174, 2-(3-methoxy-4-((4-((tetrahydro-2H-pyran-4-yl)amino)-5-(trifluoromethyl)-7H-pyrrolo[2,3-d]pyrimidin-2-yl)amino)phenyl)isot hiazolidine 1,1-dioxide]
< 50 nM | > 1000 nM | > 1000 nM | Cn1nccc1-c1ccc(Nc2nc(NCCS(C)(=O)=O)c3c(C#N)c[nH]c3n2)c2c1OCCO2 [Example 84, 2-((8-(1-methyl-1H-pyrazol-5-yl)-2,3-dihydrobenzo[b][1,4]dioxin-5-yl)amino)-4-((2-(methylsulfonyl)ethyl)amino)-7H-pyrrolo[2,3-d] pyrimidine-5-carbonitrile]
< 50 nM | < 100 nM | < 100 nM | Cn1nccc1-c1ccc(Nc2nc(NC3CCCC3)c3c(C#N)c[nH]c3n2)c2c1OCCO2 [Example 38, 4-(cyclopentylamino)-2-((8-(1-methyl-1H-pyrazol-5-yl)-2,3-dihydrobenzo[b][1,4]dioxin-5-yl)amino)-7H-pyrrolo[2,3-d] pyrimidine-5-carbonitrile]
< 50 nM | < 100 nM | 100 to 1000 nM | COCCNc1nc(Nc2ccc(-c3nncn3C)cc2OC)nc2[nH]cc(C#N)c12 [Example 95, 2-((2-methoxy-4-(4-methyl-4H-1,2,4-triazol-3-yl)phenyl)amino)-4-((2-methoxyethyl)amino)-7H-pyrrolo[2,3-d] pyrimidine-5-carbonitrile]
< 50 nM | 100 to 1000 nM | 100 to 1000 nM | N#Cc1c[nH]c2nc(Nc3ccc(N4CCCS4(=O)=O)c(F)c3)nc(NC3CCOCC3)c12 [Example 29]
50 to 200 nM | < 100 nM | < 100 nM | Cn1nccc1-c1ccc(Nc2nc(NC3C[C@H]4CC[C@@H]3C4)c3c(C#N)c[nH]c3n2)c2c1OCCO2 (stereo partly drawn) [Example 61, 4-(((1R,4S)-bicyclo[2.2.l]heptan-2-yl)amino)-2-((8-(1-methyl-1H-pyrazol-5-yl)-2,3-dihydrobenzo[b][1,4]dioxin-5-yl)amino)-7H-pyrrolo[2,3-d] pyrimidine-5-carbonitrile]
< 50 nM | < 100 nM | < 100 nM | N#Cc1c[nH]c2nc(Nc3ccc(N4CCCS4(=O)=O)cc3)nc(NC3CCCC3)c12 [Example 158, 4-(cyclopentylamino)-2-((4-(1,1-dioxidoisothiazolidin-2-yl)phenyl)amino)-7H-pyrrolo[2,3-d] pyrimidine-5-carbonitrile]
< 50 nM | < 100 nM | < 100 nM | Cn1cc(-c2ccc(Nc3nc(NC4CCC(F)(F)C4)c4c(C#N)c[nH]c4n3)c3c2OCCO3)cn1 (stereo not drawn) [Example 159, 4-((3,3-difluorocyclopentyl)amino)-2-((8-(1-methyl-1H-pyrazol-4-yl)-2,3-dihydrobenzo[b][1,4]dioxin-5-yl)amino)-7H-pyrrolo[2,3-d] pyrimidine-5-carbonitrile]
< 50 nM | < 100 nM | < 100 nM | COc1cc(-c2ccnn2C)c(F)cc1Nc1nc(NC2CCOCC2)c2c(C#N)c[nH]c2n1 [Example 122, 2-((5-fluoro-2-methoxy-4-(1-methyl-1H-pyrazol-5-yl)phenyl)amino)-4-((tetrahydro-2H-pyran-4-yl)amino)-7H-pyrrolo[2,3-d] pyrimidine-5-carbonitrile]
50 to 200 nM | < 100 nM | < 100 nM | Cn1nccc1-c1ccc(Nc2nc(NCC(C)(C)C)c3c(C#N)c[nH]c3n2)c2c1OCCO2 [Example 60, 2-((8-(1-methyl-1H-pyrazol-5-yl)-2,3-dihydrobenzo[b][1,4]dioxin-5-yl)amino)-4-(neopentylamino)-7H-pyrrolo[2,3-d] pyrimidine-5-carbonitrile]
< 50 nM | 100 to 1000 nM | < 100 nM | COc1cc(-c2cnn(C)c2)c(F)cc1Nc1nc(NC2CCCC2)c2c(C#N)c[nH]c2n1 [Example 125, 4-(cyclopentylamino)-2-((5-fluoro-2-methoxy-4-(1-methyl-1H-pyrazol-4-yl)phenyl)amino)-7H-pyrrolo[2,3-d] pyrimidine-5-carbonitrile]
